Source: US20090023780A1 (priority 2000, published 2009)

Test system: Sprague-Dawley rats
Assay: Phase 1: specific effects of gacyclidine on the nociceptive threshold in rats (modified Randall-Selitto test)
Assay type: in vivo, rat
Settings: for analgesic effect per se: 0.1 mg/kg
Experimental: All the experiments are carried out on Sprague-Dawley rats weighing 350-400 g; each experimental phase is carried out according to a similar plan: each experimental phase is carried out on 6 groups of 12 rats including one group of control animals. The test adopted to measure the nociceptive threshold is the Randall-Selitto Test modified according to Kayser et al. (1990) (Kayser V., Basbaum A. I. and Guilbaud G.,
Deafferentation in the rat increase mechanical nociceptive threshold in the innervated limbs; Brain research ([…]), 508, 329-332), using a mechanical stimulus of increasing intensity (expressed in grams), the retained evoked response being the cry of the animal.
The general plan for an experimental phase is as follows: • arrival and housing of the animals: 4 days; • preparation of the animals allowing them to become familiar with the investigator and the experimental conditions and measurements in order to avoid any possibility of measurement bias being induced by stress: 14 days; • preparation and insertion of the catheters: 9 days; • post-operative rest (with antibiotic treatment) and determination of the stability of the experimental measurements (basic nociceptive threshold): 4 days; • testing of response to the different active ingredients: 9 days.
The 3 doses of gacyclidine retained: 0.1, 0.3 and 1 mg/kg, are injected by venous route using the catheter introduced into a jugular vein.
All the results are analyzed according to an ANOVA test.
Phase 1: study of the specific effects of gacyclidine on the nociceptive threshold in rats.
3 series of experiments each including 2 groups of animals of 12 rats are set up. • 1st series of experiments: • 1st group: the animals receive an injection of physiological saline solution. • 2nd group: the animals receive a dose of 0.1 mg/kg of gacyclidine.
2nd series of experiments: • 1st group: the animals receive an injection of physiological saline solution. • 2nd group: the animals receive a dose of 0.3 mg/kg of gacyclidine.
3rd series of experiments: • 1st group: the animals receive an injection of physiological saline solution. • 2nd group: the animals receive a dose of 1 mg/kg of gacyclidine.
All the animals in the 3 series of experiments are prepared during the same phase. The day of administration of the gacyclidine (or of the physiological saline solution) for each series is deferred by only 3 days in order to follow the evolution of the nociceptive threshold for several days following the administration of the pharmaceutical substances. The measurement of the nociceptive threshold is carried out over at least 4 hours after the injection of gacyclidine, at the rate of one measurement every 30 minutes then daily for at least one week.

[1] = gacyclidine alone, 0.1 mg/kg i.v.

1-[cis-2-methyl-1-(2-thienyl)cyclohexyl]piperidine [gacyclidine]
psychomotor effect (doses of 0.1 and 0.3 mg/kg): does not have any psychomotor effect | motor effect per se [1]: neither analgesic effect nor motor effect | analgesic effect per se [1]: neither analgesic effect nor motor effect | analgesic effect per se (gacyclidine alone, 0.1 mg/kg i.v., listed as thienylcyclohexylamine): does not per se cause any analgesic effect | duration of analgesic effect (nociceptive threshold) (gacyclidine alone, 0.3 mg/kg i.v.): 30 min | duration of analgesic effect (nociceptive threshold) (gacyclidine alone, 1 mg/kg i.v.): first hour | motor effects (gacyclidine alone, 1 mg/kg i.v. (strongest dose used)): induces motor effects
